Assay results reported in patent US12583851B2, “Heteroaryl-substituted pyrazine derivatives as pesticides” (Elanco Animal Health GmbH, priority 2019, dated 2026).

Tests used:
Format in all cases: in vivo
[1] = tested on: adult flies Musca domestica strain WHO-N; assay: Musca domestica test (MUSCDO surface treatment & contact assay); settings: 24 hours after contact, read-out: mortality (efficacy); for mortality at 20 mg/m2: surface concentration 20 mg/m^2, 30 minutes exposure
Procedure: Musca domestica Test (MUSCDO Surface Treatment & Contact Assay)
(§1) Solvent: Aceton+2000 ppm rapeseed oil methyl ester (RME)
(§2) In order to produce a sufficient, active ingredient containing solution it is necessary to solve the test compound in the solvent-mix (acetone at 2 mg/ml/RME 2000 ppm). This solution is pipetted onto a glazed tile and after evaporation of the acetone, adult flies of the species Musca domestica strain WHO-N are placed onto the dried surface. The exposure time is 30 minutes.
(§3) Mortality in percent (%) is determined 24 hours after contact of the insects to the treated surface. 100% mortality means that all tested insects are dead, whereas 0% means that no insect died.

[2] = tested on: green peach aphid (Myzus persicae); assay: Myzus persicae oral test; settings: 120 h, 0.8 ppm, after 5 days
Procedure: Solvent: 100 parts by weight acetone
To produce a suitable preparation of active compound, 1 part by weight of active compound is mixed with the stated amount of solvent, and the concentrate is diluted with water to the desired concentration.
50 μL compound solution is filled in microtiter plates and 150 μL IPL41 insect medium (33%+15% sugar) is added to obtain a total volume of 200 μL per well. Afterwards the plates are sealed with parafilm through which a mixed population of the green peach aphid (Myzus persicae) can suck on the compound preparation.
After 5 days mortality in % is determined. 100% means all aphids have been killed and 0% means none of the aphids have been killed.

[3] = tested on: adult mosquitoes Anopheles funestus strain FUMOZ-R; assay: Anopheles funestus test (ANPHFU surface treatment & contact assay); settings: surface concentration 20 mg/m^2, 30 minutes exposure, 24 hours after contact, read-out: mortality (efficacy)
Procedure: Anopheles funestus Test (ANPHFU Surface Treatment & Contact Assay)
as §1
as §2, with “mosquitoes” for “flies”, “Anopheles funestus” for “Musca domestica”, “FUMOZ-R (Hunt et al., Med. Vet. Entomol. 2005 Sep. 19(3): 271-275)” for “WHO-N”
as §3

[4] = tested on: adult unfed cat fleas (Ctenocephalides felis); assay: Ctenocephalides felis oral test; settings: 48 h, 100 ppm in citrated cattle blood, after 2 days
Summary of the method: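 About 20 adult unfed cat fleas fed through parafilm on citrated cattle blood containing compound (from a DMSO concentrate). Blood held at 37° C, fleas at room temperature. Mortality in % scored after 2 days.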

[5] = tested on: fall armyworm larvae (Spodoptera frugiperda); assay: Spodoptera frugiperda spray test; settings: 168 h, maize leaf sections, after 7 days
Summary of the method: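 Percent larval kill read at day 7, from 0% (no caterpillars dead) to 100% (all dead). Larvae were placed on dried Zea mays leaf discs previously sprayed with test preparations made from an acetone/DMF solution diluted in 1000 ppm emulsifier-containing water.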

[6] = tested on: adult mosquitoes Aedes aegypti strain MONHEIM; assay: Aedes aegypti test (AEDSAE surface treatment & contact assay); settings: 24 hours after contact, read-out: mortality (efficacy); for mortality at 4 mg/m2: surface concentration 4 mg/m^2, 30 minutes exposure; for mortality at 20 mg/m2: surface concentration 20 mg/m^2, 30 minutes exposure
Procedure: Aedes aegypti Test (AEDSAE Surface Treatment & Contact Assay)
as §1
as §2, with “mosquitoes” for “flies”, “Aedes aegypti” for “Musca domestica”, “MONHEIM” for “WHO-N”
as §3

[7] = tested on: adult Blattella germanica strain PAULINIA; assay: Blattella germanica test (BLTTGE surface treatment & contact assay); settings: surface concentration 20 mg/m^2, 30 minutes exposure, 24 hours after contact, read-out: mortality (efficacy)
Procedure: Blattella germanica Test (BLTTGE Surface Treatment & Contact Assay)
as §1
as §2, with “animals” for “flies”, “Blattella germanica” for “Musca domestica”, “PAULINIA” for “WHO-N”
as §3

[8] = tested on: larvae of the banded cucumber beetle (Diabrotica balteata); assay: Diabrotica balteata spray test; settings: 168 h, after 7 days, read-out: efficacy (seedling growth); for pest or weed control at 6.4 µg/disc, 20 g/ha: 20 g/ha (=6.4 μg/well)
Summary of the method: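 Efficacy was read 7 days after infesting each unit with 10–20 banded cucumber beetle larvae, as % of seedlings growing like untreated, uninfested controls. Before infestation, wheat seeds germinated 1 day on agar (5 per well) were sprayed with the active ingredient. The active was formulated in acetone/DMF and diluted in water containing emulsifier.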

Row | Compound | mortality at 4 mg/m2 ([1]; surface concentration 4 mg/m^2, 30 minutes exposure) [%] | mortality at 20 mg/m2 [1] [%] | mortality at 0.8 ppm [2] [%] | mortality at 20 mg/m2 [3] [%] | mortality at 100 ppm [4] [%] | mortality at 100 g/ha [5] [%] | mortality at 4 mg/m2 [6] [%] | mortality at 20 mg/m2 [6] [%] | mortality at 20 mg/m2 [7] [%] | pest or weed control at 6.4 µg/disc, 20 g/ha [8] [%] | pest or weed control at 32 µg/disc, 100 g/ha ([8]; 100 g/ha (=32 μg/well)) [%]
1 | CC(NC(=O)c1cc(C(F)(F)F)cc(C(F)(F)F)c1)c1nccnc1-c1ncccn1 (racemic) [Example I-8, (rac)-N-(1-(3-(Pyrimidin-2-yl)pyrazin-2-yl)ethyl)-3,5-bis(trifluoromethyl)benzamide] | 80 to 100 | 80 to 100 | 100 | 80 to 100 | 100 | 100 | 80 to 100 | 80 to 100 | 80 to 100 | 100 | –
2 | CC(NC(=O)c1cc(Cl)cc(C(F)(F)F)c1)c1nccnc1-c1ncccn1 (racemic) [Example I-10, (rac)-3-Chloro-N-(1-(3-(pyrimidin-2-yl)pyrazin-2-yl)ethyl)-5-(trifluoromethyl)benzamide] | – | 80 to 100 | 90 | 80 to 100 | 100 | 100 | 80 to 100 | 80 to 100 | 80 to 100 | 100 | 100
